Structures can show the parent of a compound that is named as a salt. Where two headings read alike, the source gives them in different places.
Columns and labels:
[1] = tested on: Plasmodium falciparum 3D7; test: microbe, parasite or virus in culture; conditions: for Percentage inhibition of the growth of Plasmodium falciparum: Prestwick Library pilot screen, duplicate; for inhibition at 5 µM: 3D7, read-out: Percentage inhibition of the growth of Plasmodium falciparum, Prestwick Library pilot screen, screening conc. 0.005 mM, duplicate; for inhibition at 6 µM: 3D7, read-out: Percentage inhibition of the growth of Plasmodium falciparum, Prestwick Library pilot screen, screening conc. 0.006 mM, duplicate; for inhibition at 8 µM: 3D7, read-out: Percentage inhibition of the growth of Plasmodium falciparum, Prestwick Library pilot screen, screening conc. 0.008 mM, duplicate
Experimental: Growth inhibition was quantified using a fluorescence assay utilizing the binding of SYBR Green I to double stranded DNA, which emits a fluorescent signal at 528 nm after excitation at 485 nm. The SYBR Green assay system was adapted to maximize robustness and to align with available automation systems. The Prestwick Library then used as a pilot screen to validate the performance of the optimized assay. […] Single point screens were carried out, and the potency of compounds of interest was determined in duplicate on two independent occasions. A 96-well [^3H]-Hypoxanthine incorporation assay was also developed as a secondary assay in order to validate key compounds from each hit series in an orthogonal platform.
(§1) All data were processed using IDBS ActivityBase. […] The formula used to calculate Z’ is 1-3×(StDev_high+StDev_low)/ABS(Mean_high-Mean_low) .
Two independent assays were run.

[2] = tested on: normal diploid human fibroblasts (MRC-5 pd30); test: in vitro; assay type: cell-based
Experimental: Cells were plated and incubated overnight to allow them to adhere as monolayers. A working stock of each test compound was transferred to an intermediate 384-well plate and pre-diluted with minimum essential media (MEM). The pre-diluted stocks were then transferred onto the cell monolayers, and the plates were incubated for 68 h. Resazurin, to a final concentration of 50 μM was added to each well, after which plates were incubated for a further 3 h and measured for fluorescence (λ ex = 528 nm, λ em = 590 nm).
as §1
All EC50 Curve fitting was undertaken using XLFit version 4.2 using Model 205 with the following 4 parametric equation: y=A+B-A/1+[…], where A = % inhibition at bottom, B = % inhibition at top, C = EC50, D = slope, x = inhibitor concentration and y = % inhibition.

[3] = Plasmodium falciparum, 3D7, read-out: Percentage inhibition of the growth of Plasmodium falciparum, Prestwick Library pilot screen, screening conc. 0.007 mM, duplicate
[4] = Plasmodium falciparum, 3D7, read-out: Percentage inhibition of the growth of Plasmodium falciparum, Prestwick Library pilot screen, screening conc. 0.004 mM, duplicate
[5] = Plasmodium falciparum, read-out: Percentage inhibition of the growth of Plasmodium falciparum
[6] = Plasmodium falciparum, 3D7, read-out: Percentage inhibition of the growth of Plasmodium falciparum, Prestwick Library pilot screen, screening conc. 0.003 mM, duplicate

C=C[C@H]1CN2CC[C@H]1C[C@H]2[C@H](O)c1ccnc2ccccc12 [(-)-Cinchonidine, reference compound]
Percentage inhibition of the growth of Plasmodium falciparum ([1]; screening conc. 0.007 mM): 100 ± 1%

COc1ccc2c(c1OC)CN1CCc3cc4c(cc3C1C2)OCO4 (stereo not drawn) [(d,l)-Tetrahydroberberine, reference compound]
Percentage inhibition of the growth of Plasmodium falciparum ([1]; screening conc. 0.006 mM): 83 ± 2%

COc1ccc(C[C@H]2NC[C@H](O)[C@H]2OC(C)=O)cc1 [Anisomycin, reference compound]
Percentage inhibition of the growth of Plasmodium falciparum ([1]; screening conc. 0.008 mM): 102 ± 2%

C[C@@H]1CC[C@H]2[C@@H](C)C(=O)O[C@@H]3O[C@@]4(C)CC[C@@H]1[C@]32OO4 [Artemisinin, reference compound]
inhibition at 7 µM [1, 3]: 99.5 ± 0.1%
Percentage inhibition of the growth of Plasmodium falciparum ([1]; screening conc. 0.007 mM): 100%

COc1ccc(CCN2CCC(Nc3nc4ccccc4n3Cc3ccc(F)cc3)CC2)cc1 [Astemizole, reference compound]
inhibition at 4 µM [1, 4]: 97.3 ± 0.8%

O=C1C(O)=C([C@H]2CC[C@H](c3ccc(Cl)cc3)CC2)C(=O)c2ccccc21 [Atovaquone, reference compound]
inhibition at 5 µM ([1]; Plasmodium falciparum): 99 ± 2%

C[N+](C)(CCOc1ccccc1)Cc1ccccc1.O=C([O-])c1cc2ccccc2cc1O [Bephenium hydroxynaphthoate, reference compound]
Percentage inhibition of the growth of Plasmodium falciparum ([1]; screening conc. 0.005 mM): 55.1 ± 0.5%

COc1ccc2cc3[n+](cc2c1OC)CCc1cc2c(cc1-3)OCO2 [Berberine chloride, reference compound]
inhibition at 5 µM ([1]; Plasmodium falciparum): 99 ± 2%

CCCCOc1ccc(CC(=O)NO)cc1 [Bufexamac, reference compound]
inhibition at 9 µM ([1]; Plasmodium falciparum, 3D7, read-out: Percentage inhibition of the growth of Plasmodium falciparum, Prestwick Library pilot screen, screening conc. 0.009 mM, duplicate): 69 ± 2%

CC[C@H]1CN2CCc3cc(OC)c(OC)cc3[C@@H]2C[C@@H]1C[C@H]1NCCc2cc(O)c(OC)cc21.Cl.Cl.O.O.O.O.O.O.O [Cephaeline dihydrochloride heptahydrate, reference compound]
Percentage inhibition of the growth of Plasmodium falciparum ([1]; screening conc. 0.003 mM): 101 ± 3%

[H]/N=C(\N/C(=N/[H])NCCCCCCNC(=N)NC(=N)Nc1ccc(Cl)cc1)Nc1ccc(Cl)cc1 [Chlorhexidine, reference compound]
inhibition at 4 µM [1, 4]: 98 ± 1%

CCN(CC)CCCC(C)Nc1ccnc2cc(Cl)ccc12 (stereo not drawn) [Chloroquine diphosphate, reference compound]
inhibition at 4 µM [1, 5]: 104 ± 1%

C=C[C@H]1C[N@@]2CC[C@H]1C[C@@H]2[C@@H](O)c1ccnc2ccccc12 [Cinchonine, reference compound]
inhibition at 7 µM [1, 3]: 101 ± 5%

CCC(=O)O[C@]1(C(=O)CCl)[C@@H](C)C[C@H]2[C@@H]3CCC4=CC(=O)C=C[C@]4(C)[C@@]3(F)[C@@H](O)C[C@@]21C [Clobetasol propionate, reference compound]
inhibition at 4 µM [1, 4]: 50 ± 16%

Cc1cc(NC(=O)c2cn(-c3ccccc3)nc2-c2cccs2)[nH]n1 [Compound A0012]
LLE (ligand-lipophilicity efficiency) ([1]; Table 8, MMV03 SAR): 1.9
EC50 ([1]; read-out: P. fal. EC50, Table 8, MMV03 SAR): 6 µM
EC50 ([2]; Table 8, MMV03 SAR, read-out: MRC5 EC50): 24 µM

C[C@@H]1C[C@@H]([C@H](O)CC2CC(=O)NC(=O)C2)C(=O)[C@@H](C)C1 [Cycloheximide, reference compound]
inhibition at 7 µM [1, 5]: 103.1 ± 0.1%

COc1cccc2c1C(=O)c1c(O)c3c(c(O)c1C2=O)C[C@@](O)(C(C)=O)C[C@@H]3O[C@H]1C[C@H](N)[C@H](O)[C@H](C)O1 [Daunorubicin hydrochloride, reference compound]
inhibition at 4 µM [1, 5]: 132 ± 1%

C[N+](C)(C)CCCCCCCCCC[N+](C)(C)C [Decamethonium bromide, reference compound]
inhibition at 5 µM ([1]; Plasmodium falciparum): 64 ± 3%

CN(CCCCCCCCCCN(C)C(=O)Oc1cccc([N+](C)(C)C)c1)C(=O)Oc1cccc([N+](C)(C)C)c1 [Demecarium bromide, reference compound]
inhibition at 3 µM [1, 5]: 104 ± 2%

COc1cc2nc(N3CCN(C(=O)C4COc5ccccc5O4)CC3)nc(N)c2cc1OC (stereo not drawn) [Doxazosin mesylate, reference compound]
inhibition at 4 µM [1, 4]: 84 ± 0.6%

COc1cccc2c1C(=O)c1c(O)c3c(c(O)c1C2=O)C[C@@](O)(C(=O)CO)C[C@@H]3O[C@H]1C[C@H](N)[C@H](O)[C@H](C)O1 [Doxorubicin hydrochloride, reference compound]
inhibition at 3 µM [1, 6]: 137 ± 2%

CC[C@H]1CN2CCc3cc(OC)c(OC)cc3[C@@H]2C[C@@H]1C[C@H]1NCCc2cc(OC)c(OC)cc21 [Emetine dihydrochloride, reference compound]
inhibition at 4 µM [1, 4]: 103 ± 2%

Br.CC[C@H]1CN2CCC1C[C@H]2[C@H](O)c1ccnc2ccc(OC)cc12.O (stereo partly drawn) [Hydroquinine hydrobromide hydrate, reference compound]
Percentage inhibition of the growth of Plasmodium falciparum ([1]; screening conc. 0.005 mM): 99 ± 2%

OC(c1cc(C(F)(F)F)nc2c(C(F)(F)F)cccc12)C1CCCCN1 (stereo not drawn) [Mefloquine hydrochloride, reference compound]
inhibition at 5 µM ([1]; Plasmodium falciparum): 97.4 ± 0.4%

CN1C[C@H](CNC(=O)OCc2ccccc2)C[C@@H]2c3cccc4c3c(cn4C)C[C@H]21 [Metergoline, reference compound]
inhibition at 5 µM ([1]; Plasmodium falciparum): 56 ± 2%

CN(Cc1cnc2nc(N)nc(N)c2n1)c1ccc(C(=O)N[C@@H](CCC(=O)O)C(=O)O)cc1 [Methotrexate, reference compound]
inhibition at 4 µM [1, 4]: 100.9 ± 0.7%

O=C1c2c(O)ccc(O)c2C(=O)c2c(NCCNCCO)ccc(NCCNCCO)c21 [Mitoxantrone dihydrochloride, reference compound]
inhibition at 4 µM [1, 4]: 140 ± 2%

COc1c(C)c2c(c(O)c1C/C=C(\C)CCC(=O)O)C(=O)OC2 [Mycophenolic acid, reference compound]
inhibition at 6 µM ([1]; Plasmodium falciparum): 63 ± 3%

CC(=O)O[C@H]1C(=O)[C@@]2(C)[C@H]([C@H](OC(=O)c3ccccc3)[C@]3(O)C[C@H](OC(=O)[C@H](O)[C@@H](NC(=O)c4ccccc4)c4ccccc4)C(C)=C1C3(C)C)[C@]1(OC(C)=O)CO[C@@H]1C[C@@H]2O [Paclitaxel, reference compound]
inhibition at 2 µM ([1]; Plasmodium falciparum, 3D7, read-out: Percentage inhibition of the growth of Plasmodium falciparum, Prestwick Library pilot screen, screening conc. 0.002 mM, duplicate): 65 ± 2%

N=C(N)c1ccc(OCCCCCOc2ccc(C(=N)N)cc2)cc1 [Pentamidine isethionate, reference compound]
inhibition at 3 µM [1, 6]: 100 ± 4%

COc1cc(NC(C)CCCN)c2ncccc2c1 (stereo not drawn) [Primaquine diphosphate, reference compound]
inhibition at 4 µM [1, 4]: 100 ± 4%

[H]/N=C(\N/C(=N/[H])Nc1ccc(Cl)cc1)NC(C)C [Proguanil hydrochloride, reference compound]
inhibition at 7 µM [1, 3]: 49 ± 4%

CCCNCC(O)COc1ccccc1C(=O)CCc1ccccc1 (stereo not drawn) [Propafenone hydrochloride, reference compound]
inhibition at 5 µM ([1]; Plasmodium falciparum): 99 ± 1%

COc1ccc(C[C@H](N)C(=O)N[C@H]2[C@@H](O)[C@H](n3cnc4c(N(C)C)ncnc43)O[C@@H]2CO)cc1 [Puromycin dihydrochloride, reference compound]
inhibition at 4 µM [1, 4]: 96 ± 5%

CCc1nc(N)nc(N)c1-c1ccc(Cl)cc1 [Pyrimethamine, reference compound]
inhibition at 8 µM ([1]; Plasmodium falciparum): 101 ± 2%

CCN(CC)CCCC(C)Nc1c2ccc(Cl)cc2nc2ccc(OC)cc12 (stereo not drawn) [Quinacrine dihydrochloride dihydrate, reference compound]
inhibition at 4 µM [1, 4]: 100 ± 2%

C=C[C@H]1CN2CC[C@H]1C[C@@H]2[C@@H](O)c1ccnc2ccc(OC)cc12.Cl.O [Quinidine hydrochloride monohydrate, reference compound]
Percentage inhibition of the growth of Plasmodium falciparum ([1]; screening conc. 0.005 mM): 100 ± 2%

CCCCCCCCNC(C)C(O)c1ccc(SC(C)C)cc1 (stereo not drawn) [Suloctidil, reference compound]
inhibition at 6 µM ([1]; Plasmodium falciparum): 101 ± 1%

CCCCCCCCCCCCCCCC[N+](C)(C)CCN(Cc1ccc(OC)cc1)c1ncccn1 [Thonzonium bromide, reference compound]
inhibition at 3 µM [1, 6]: 70 ± 1%

Nc1nc(N)c2nc(-c3ccccc3)c(N)nc2n1 [Triamterene, reference compound]
inhibition at 8 µM ([1]; Plasmodium falciparum): 69 ± 1%

COc1cccc2c1C(=O)c1c(O)c3c(c(O)c1C2=O)C[C@@](O)(C(=O)CO)C[C@@H]3O[C@H]1C[C@H](N)[C@H](O)[C@H](C)O1 [doxorubicin, reference compound]
EC50 ([2]; Homo sapiens, MRC5, MRC-5 counter-screen plates, read-out: potency range (standard reference compound)): 0.2 to 0.4 µM

Verteporfin [reference compound]
Percentage inhibition of the growth of Plasmodium falciparum ([1]; screening conc. 0.003 mM): 95 ± 2%

Source: publication PMC5678585, “Screening a protein kinase inhibitor library against Plasmodium falciparum” (Malaria Journal, 2017)
